From ChEMBL document CHEMBL4507258 (2021)

What was measured:
[1] = molecular target: Dual specificity tyrosine-phosphorylation-regulated kinase 1A (Homo sapiens) (UniProt Q13627); settings: Compound concentration 1000.0 nM
[2] = molecular target: Bone morphogenetic protein receptor type-1A (Homo sapiens) (UniProt P36894); settings: Compound concentration 1000.0 nM
[3] = molecular target: Serine/threonine-protein kinase MARK2 (Homo sapiens) (UniProt Q7KZI7); settings: Compound concentration 1000.0 nM
Sequence of Serine/threonine-protein kinase MARK2 (Homo sapiens) (Q7KZI7 whole entry): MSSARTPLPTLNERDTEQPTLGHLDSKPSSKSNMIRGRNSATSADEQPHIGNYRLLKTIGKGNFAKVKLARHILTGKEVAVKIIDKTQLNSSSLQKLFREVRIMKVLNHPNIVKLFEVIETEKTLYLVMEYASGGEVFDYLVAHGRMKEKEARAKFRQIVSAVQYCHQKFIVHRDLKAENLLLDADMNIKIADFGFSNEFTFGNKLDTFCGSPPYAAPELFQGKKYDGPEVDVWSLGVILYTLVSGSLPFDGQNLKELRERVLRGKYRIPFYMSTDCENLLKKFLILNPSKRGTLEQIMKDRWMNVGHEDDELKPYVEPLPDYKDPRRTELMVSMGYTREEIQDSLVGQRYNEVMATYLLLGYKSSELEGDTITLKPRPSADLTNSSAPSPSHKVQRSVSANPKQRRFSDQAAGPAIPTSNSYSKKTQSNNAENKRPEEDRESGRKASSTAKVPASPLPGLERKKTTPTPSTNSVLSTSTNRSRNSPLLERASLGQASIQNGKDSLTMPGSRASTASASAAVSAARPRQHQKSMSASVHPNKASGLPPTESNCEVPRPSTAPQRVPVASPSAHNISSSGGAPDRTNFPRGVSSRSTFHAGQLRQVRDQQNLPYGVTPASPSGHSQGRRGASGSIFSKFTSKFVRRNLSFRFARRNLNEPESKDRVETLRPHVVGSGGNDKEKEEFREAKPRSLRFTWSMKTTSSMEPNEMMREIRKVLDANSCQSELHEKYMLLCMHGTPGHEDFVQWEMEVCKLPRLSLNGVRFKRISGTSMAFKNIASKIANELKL

[4] = molecular target: Peripheral plasma membrane protein CASK (Homo sapiens) (UniProt O14936); settings: Compound concentration 1000.0 nM
[5] = molecular target: Mitogen-activated protein kinase 11 (Homo sapiens) (UniProt Q15759); settings: Compound concentration 1000.0 nM
[6] = system: Mast/stem cell growth factor receptor Kit (Homo sapiens), P10721 [L576P]; settings: Compound concentration 1000.0 nM
[7] = molecular target: Epithelial discoidin domain-containing receptor 1 (Homo sapiens) (UniProt Q08345); settings: Compound concentration 1000.0 nM
[8] = system: Proto-oncogene tyrosine-protein kinase receptor Ret (Homo sapiens), P07949 [V804M]; settings: Compound concentration 1000.0 nM
[9] = molecular target: Myosin light chain kinase 2, skeletal/cardiac muscle (Homo sapiens) (UniProt Q9H1R3); settings: Compound concentration 1000.0 nM
Sequence of Myosin light chain kinase 2, skeletal/cardiac muscle (Homo sapiens) (Q9H1R3 whole entry): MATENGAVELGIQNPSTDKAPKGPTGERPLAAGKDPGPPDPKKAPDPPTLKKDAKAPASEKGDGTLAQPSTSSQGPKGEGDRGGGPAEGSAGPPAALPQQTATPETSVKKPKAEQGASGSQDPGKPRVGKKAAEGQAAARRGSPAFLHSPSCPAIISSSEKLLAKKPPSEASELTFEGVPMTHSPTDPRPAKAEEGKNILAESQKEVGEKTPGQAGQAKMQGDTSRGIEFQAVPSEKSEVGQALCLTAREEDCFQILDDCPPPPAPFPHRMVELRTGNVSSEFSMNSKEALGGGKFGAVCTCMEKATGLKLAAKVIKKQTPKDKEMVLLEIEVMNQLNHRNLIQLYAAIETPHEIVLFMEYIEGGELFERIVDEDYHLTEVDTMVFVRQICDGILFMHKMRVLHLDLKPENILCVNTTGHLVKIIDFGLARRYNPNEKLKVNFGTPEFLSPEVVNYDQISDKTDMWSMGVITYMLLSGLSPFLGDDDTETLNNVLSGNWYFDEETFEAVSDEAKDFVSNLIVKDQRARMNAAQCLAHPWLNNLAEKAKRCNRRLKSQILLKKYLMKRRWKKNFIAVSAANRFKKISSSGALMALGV

[10] = system: Epidermal growth factor receptor (Homo sapiens), P00533 [G719S]; settings: Compound concentration 1000.0 nM
[11] = molecular target: Tyrosine-protein kinase Fgr (Homo sapiens) (UniProt P09769); settings: Compound concentration 1000.0 nM
[12] = molecular target: Serine/threonine-protein kinase PAK 4 (Homo sapiens) (UniProt O96013); settings: Compound concentration 1000.0 nM
[13] = system: Receptor-type tyrosine-protein kinase FLT3 (Homo sapiens), P36888 [UNDEFINED MUTATION]; settings: Compound concentration 1000.0 nM
[14] = molecular target: Casein kinase I isoform alpha (Homo sapiens) (UniProt P48729); settings: Compound concentration 1000.0 nM
[15] = molecular target: Serine/threonine-protein kinase 25 (Homo sapiens) (UniProt O00506); settings: Compound concentration 1000.0 nM
[16] = molecular target: Focal adhesion kinase 1 (Homo sapiens) (UniProt Q05397); settings: Compound concentration 1000.0 nM
[17] = molecular target: Epidermal growth factor receptor (Homo sapiens) (UniProt P00533); settings: Compound concentration 1000.0 nM
[18] = system: ALK tyrosine kinase receptor (Homo sapiens), Q9UM73 [C1156Y]; settings: Compound concentration 1000.0 nM
[19] = molecular target: Ephrin type-A receptor 3 (Homo sapiens) (UniProt P29320); settings: Compound concentration 1000.0 nM
[20] = system: Mast/stem cell growth factor receptor Kit (Homo sapiens), P10721 [D816H]; settings: Compound concentration 1000.0 nM
[21] = molecular target: Activin receptor type-1-like (Homo sapiens) (UniProt P37023); settings: Compound concentration 1000.0 nM
Sequence of Activin receptor type-1-like (Homo sapiens) (P37023 whole entry): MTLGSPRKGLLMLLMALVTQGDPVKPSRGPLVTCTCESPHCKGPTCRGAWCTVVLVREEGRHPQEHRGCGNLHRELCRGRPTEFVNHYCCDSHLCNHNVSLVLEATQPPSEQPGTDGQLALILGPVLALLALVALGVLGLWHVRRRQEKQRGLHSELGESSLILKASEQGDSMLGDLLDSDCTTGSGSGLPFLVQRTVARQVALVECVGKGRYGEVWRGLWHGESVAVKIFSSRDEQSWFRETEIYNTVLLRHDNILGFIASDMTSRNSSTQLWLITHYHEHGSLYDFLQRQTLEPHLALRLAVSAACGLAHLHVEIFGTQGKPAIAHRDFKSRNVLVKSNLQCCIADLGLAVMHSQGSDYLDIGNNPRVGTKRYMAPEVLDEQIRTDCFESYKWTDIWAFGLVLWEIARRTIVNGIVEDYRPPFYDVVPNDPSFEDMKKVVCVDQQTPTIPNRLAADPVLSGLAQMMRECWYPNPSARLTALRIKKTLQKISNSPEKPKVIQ

[22] = molecular target: Cyclin-dependent kinase 7 (Homo sapiens) (UniProt P50613); settings: Compound concentration 1000.0 nM
[23] = molecular target: Serine/threonine-protein kinase VRK2 (Homo sapiens) (UniProt Q86Y07); settings: Compound concentration 1000.0 nM
Sequence of Serine/threonine-protein kinase VRK2 (Homo sapiens) (Q86Y07 whole entry): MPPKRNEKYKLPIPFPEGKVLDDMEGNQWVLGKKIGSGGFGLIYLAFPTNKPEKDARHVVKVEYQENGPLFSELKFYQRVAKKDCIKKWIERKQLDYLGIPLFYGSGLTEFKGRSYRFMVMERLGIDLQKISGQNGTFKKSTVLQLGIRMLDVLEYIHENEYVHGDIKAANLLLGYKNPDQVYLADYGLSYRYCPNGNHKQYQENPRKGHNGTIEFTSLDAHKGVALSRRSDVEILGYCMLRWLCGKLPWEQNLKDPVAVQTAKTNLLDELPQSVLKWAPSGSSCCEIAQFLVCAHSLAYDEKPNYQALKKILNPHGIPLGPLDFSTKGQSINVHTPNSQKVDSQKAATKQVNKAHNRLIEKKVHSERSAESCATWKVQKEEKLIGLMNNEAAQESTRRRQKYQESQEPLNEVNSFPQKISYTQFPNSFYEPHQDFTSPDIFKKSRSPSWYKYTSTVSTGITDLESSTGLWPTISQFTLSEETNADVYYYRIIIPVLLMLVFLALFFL

[24] = system: Tyrosine-protein kinase ABL1 (Homo sapiens), P00519 [M351T]; settings: Compound concentration 1000.0 nM
[25] = molecular target: MAP kinase-activated protein kinase 5 (Homo sapiens) (UniProt Q8IW41); settings: Compound concentration 1000.0 nM
Sequence of MAP kinase-activated protein kinase 5 (Homo sapiens) (Q8IW41 whole entry, canonical isoform): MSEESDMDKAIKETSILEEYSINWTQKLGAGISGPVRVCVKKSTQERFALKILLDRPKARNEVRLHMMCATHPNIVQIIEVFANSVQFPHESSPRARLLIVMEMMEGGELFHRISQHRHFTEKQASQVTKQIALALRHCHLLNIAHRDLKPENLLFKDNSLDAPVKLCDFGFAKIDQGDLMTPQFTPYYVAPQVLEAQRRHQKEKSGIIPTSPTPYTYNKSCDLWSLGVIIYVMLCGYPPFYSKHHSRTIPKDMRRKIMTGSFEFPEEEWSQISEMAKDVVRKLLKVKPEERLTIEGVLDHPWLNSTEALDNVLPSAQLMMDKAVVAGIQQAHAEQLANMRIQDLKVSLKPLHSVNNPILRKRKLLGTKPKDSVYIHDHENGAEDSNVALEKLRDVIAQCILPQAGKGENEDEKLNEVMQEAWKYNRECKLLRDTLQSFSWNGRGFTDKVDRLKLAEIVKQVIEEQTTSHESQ

[26] = system: Phosphatidylinositol 4,5-bisphosphate 3-kinase catalytic subunit alpha isoform (Homo sapiens), P42336 [E542K]; settings: Compound concentration 1000.0 nM
[27] = molecular target: Tyrosine-protein kinase JAK3 (Homo sapiens) (UniProt P52333); settings: Compound concentration 1000.0 nM
[28] = molecular target: Serine/threonine-protein kinase D2 (Homo sapiens) (UniProt Q9BZL6); settings: Compound concentration 1000.0 nM
[29] = molecular target: Serine/threonine-protein kinase mTOR (Homo sapiens) (UniProt P42345); settings: Compound concentration 1000.0 nM
[30] = system: Tyrosine-protein kinase ABL1 (Homo sapiens), P00519 [T315I]; settings: Compound concentration 1000.0 nM
[31] = molecular target: Serine/threonine-protein kinase MAK (Homo sapiens) (UniProt P20794); settings: Compound concentration 1000.0 nM
[32] = molecular target: Serine/threonine-protein kinase SIK3 (Homo sapiens) (UniProt Q9Y2K2); settings: Compound concentration 1000.0 nM
[33] = molecular target: Ephrin type-B receptor 6 (Homo sapiens) (UniProt O15197); settings: Compound concentration 1000.0 nM
[34] = molecular target: Serine/threonine-protein kinase pim-1 (Homo sapiens) (UniProt P11309); settings: Compound concentration 1000.0 nM
[35] = molecular target: Alpha-2B adrenergic receptor (Homo sapiens) (UniProt P18089); settings: Compound concentration 10.0 uM
[36] = molecular target: Non-receptor tyrosine-protein kinase TYK2 (Homo sapiens) (UniProt P29597); settings: Compound concentration 1000.0 nM
[37] = molecular target: Cyclin-dependent kinase 11A (Homo sapiens) (UniProt Q9UQ88); settings: Compound concentration 1000.0 nM
Sequence of Cyclin-dependent kinase 11A (Homo sapiens) (Q9UQ88 whole entry): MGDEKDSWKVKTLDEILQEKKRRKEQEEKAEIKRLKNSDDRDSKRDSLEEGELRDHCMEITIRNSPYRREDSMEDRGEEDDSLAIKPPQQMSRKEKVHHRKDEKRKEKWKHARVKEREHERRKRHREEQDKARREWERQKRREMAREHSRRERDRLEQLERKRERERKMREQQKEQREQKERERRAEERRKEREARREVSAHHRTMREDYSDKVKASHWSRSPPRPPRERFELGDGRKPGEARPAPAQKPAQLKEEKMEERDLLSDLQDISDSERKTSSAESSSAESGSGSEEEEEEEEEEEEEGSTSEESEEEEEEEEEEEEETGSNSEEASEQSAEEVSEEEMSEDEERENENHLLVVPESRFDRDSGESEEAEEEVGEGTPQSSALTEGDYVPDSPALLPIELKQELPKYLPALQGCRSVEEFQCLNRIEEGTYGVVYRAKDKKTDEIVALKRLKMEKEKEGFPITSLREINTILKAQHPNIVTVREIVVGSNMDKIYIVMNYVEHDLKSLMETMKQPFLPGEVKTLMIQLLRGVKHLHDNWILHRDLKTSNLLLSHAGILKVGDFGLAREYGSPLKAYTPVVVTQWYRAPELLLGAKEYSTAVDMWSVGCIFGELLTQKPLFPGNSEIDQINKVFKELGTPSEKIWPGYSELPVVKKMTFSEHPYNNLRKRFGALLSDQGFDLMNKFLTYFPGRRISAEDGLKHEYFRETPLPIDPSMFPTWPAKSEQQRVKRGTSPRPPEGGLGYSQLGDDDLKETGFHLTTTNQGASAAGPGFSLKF

[38] = system: Tyrosine-protein kinase ABL1 (Homo sapiens), P00519 [E255K]; settings: Compound concentration 1000.0 nM
[39] = molecular target: Discoidin domain-containing receptor 2 (Homo sapiens) (UniProt Q16832); settings: Compound concentration 1000.0 nM
[40] = molecular target: D(1A) dopamine receptor (Homo sapiens) (UniProt P21728); settings: Compound concentration 10.0 uM
[41] = system: Mast/stem cell growth factor receptor Kit (Homo sapiens), P10721 [V559D,V654A]; settings: Compound concentration 1000.0 nM
Sequence of Mast/stem cell growth factor receptor Kit (Homo sapiens), P10721 [V559D,V654A] (P10721 whole entry V559D/V654A): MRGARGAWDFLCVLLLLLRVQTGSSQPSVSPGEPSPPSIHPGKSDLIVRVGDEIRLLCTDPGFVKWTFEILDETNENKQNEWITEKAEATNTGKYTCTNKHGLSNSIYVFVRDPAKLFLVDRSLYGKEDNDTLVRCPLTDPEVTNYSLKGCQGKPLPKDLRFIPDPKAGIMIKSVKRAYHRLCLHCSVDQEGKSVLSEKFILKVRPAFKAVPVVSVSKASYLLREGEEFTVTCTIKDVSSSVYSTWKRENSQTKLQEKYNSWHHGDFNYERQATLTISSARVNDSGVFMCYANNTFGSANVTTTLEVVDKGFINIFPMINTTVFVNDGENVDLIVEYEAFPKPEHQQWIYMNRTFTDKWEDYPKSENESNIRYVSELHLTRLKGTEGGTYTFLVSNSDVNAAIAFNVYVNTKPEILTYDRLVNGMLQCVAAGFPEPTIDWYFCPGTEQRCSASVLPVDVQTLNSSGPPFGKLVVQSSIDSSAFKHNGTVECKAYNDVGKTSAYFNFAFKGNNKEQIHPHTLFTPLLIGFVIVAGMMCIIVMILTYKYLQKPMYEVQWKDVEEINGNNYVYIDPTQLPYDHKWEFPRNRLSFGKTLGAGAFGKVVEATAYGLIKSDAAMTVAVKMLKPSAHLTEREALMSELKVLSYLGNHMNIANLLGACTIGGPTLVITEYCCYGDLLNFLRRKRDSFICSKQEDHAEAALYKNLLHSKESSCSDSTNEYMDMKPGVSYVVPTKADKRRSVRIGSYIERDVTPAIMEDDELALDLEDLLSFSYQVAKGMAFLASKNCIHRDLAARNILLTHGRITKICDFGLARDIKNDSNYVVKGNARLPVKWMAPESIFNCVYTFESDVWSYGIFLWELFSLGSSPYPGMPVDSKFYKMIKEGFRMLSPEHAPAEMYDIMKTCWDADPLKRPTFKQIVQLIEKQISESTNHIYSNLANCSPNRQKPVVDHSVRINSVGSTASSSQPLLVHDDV

[42] = molecular target: Receptor-interacting serine/threonine-protein kinase 2 (Homo sapiens) (UniProt O43353); settings: Compound concentration 1000.0 nM
[43] = molecular target: Death-associated protein kinase 2 (Homo sapiens) (UniProt Q9UIK4); settings: Compound concentration 1000.0 nM
Sequence of Death-associated protein kinase 2 (Homo sapiens) (Q9UIK4 whole entry, looked up): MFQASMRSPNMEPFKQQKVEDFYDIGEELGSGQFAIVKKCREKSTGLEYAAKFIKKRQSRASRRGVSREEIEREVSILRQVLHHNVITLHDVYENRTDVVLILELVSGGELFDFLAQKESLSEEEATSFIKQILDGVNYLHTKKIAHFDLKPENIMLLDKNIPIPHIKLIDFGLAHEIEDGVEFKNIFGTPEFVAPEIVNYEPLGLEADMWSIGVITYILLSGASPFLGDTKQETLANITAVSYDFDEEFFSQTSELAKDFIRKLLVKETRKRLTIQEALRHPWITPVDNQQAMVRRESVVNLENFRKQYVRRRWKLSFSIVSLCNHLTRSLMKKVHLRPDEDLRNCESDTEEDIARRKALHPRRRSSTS

[44] = molecular target: Dual specificity protein kinase CLK2 (Homo sapiens) (UniProt P49760); settings: Compound concentration 1000.0 nM
[45] = molecular target: D(1B) dopamine receptor (Homo sapiens) (UniProt P21918); settings: Compound concentration 10.0 uM

For CCCCN(CCCC)C(=O)CN1C[C@H](c2cc(OC)c3c(c2)OCO3)[C@@H](C(=O)O)[C@@H]1CC(C)(C)CCC [ABT-546], the residual activity [1] was 73.1%, the residual activity [2] was 86.9% and the residual activity [3] was 100%. It also gave a residual activity [4] of 70%, a residual activity [5] of 94.2% and a residual activity [6] of 100%. For the same molecule, the residual activity [7] was 95.5%, the residual activity [8] was 100% and the residual activity [9] was 100%. The residual activity [10] was 100%, the residual activity [11] was 100% and the residual activity [12] was 100%. The residual activity [13] was 46.4%, the residual activity [14] was 98.1% and the residual activity [15] was 100%. It also gave a residual activity [16] of 100%, a residual activity [17] of 95.1% and a residual activity [18] of 100%. It also gave a residual activity [19] of 100%, a residual activity [20] of 67.3% and a residual activity [21] of 100%. It also gave a residual activity [22] of 100%, a residual activity [23] of 72.8% and a residual activity [24] of 96.9%. The residual activity [25] was 67.9%, the residual activity [26] was 57.4% and the residual activity [27] was 71.3%. It also gave a residual activity [28] of 100%, a residual activity [29] of 100% and a residual activity [30] of 100%. The residual activity [31] was 100%, the residual activity [32] was 60.5% and the residual activity [33] was 100%. For the same molecule, the residual activity [34] was 100%, the inhibition [35] was 9.73% and the residual activity [36] was 100%. It also gave a residual activity [37] of 100%, a residual activity [38] of 83.7% and a residual activity [39] of 76.6%. For the same molecule, the inhibition [40] was 4.66%, the residual activity [41] was 100% and the residual activity [42] was 100%. It also gave a residual activity [43] of 100%, a residual activity [44] of 100% and an inhibition [45] of 17%.
CCCCN(CCCC)C(=O)CN1C[C@@H](c2cc(OC)c3c(c2)OCO3)[C@H](C(=O)O)[C@H]1CC(C)(C)CCC [A-545] was tested, and the residual activity [1] was 96.3%, the residual activity [2] was 100% and the residual activity [3] was 100%. For the same molecule, the residual activity [4] was 90.5%, the residual activity [5] was 99.2% and the residual activity [6] was 100%. It also gave a residual activity [7] of 100%, a residual activity [8] of 82.4% and a residual activity [9] of 100%. For the same molecule, the residual activity [10] was 100%, the residual activity [11] was 92.4% and the residual activity [12] was 90.2%. For the same molecule, the residual activity [13] was 97.4%, the residual activity [14] was 99.1% and the residual activity [15] was 88.1%. It also gave a residual activity [16] of 100%, a residual activity [17] of 100% and a residual activity [18] of 95.4%. The residual activity [19] was 95.3%, the residual activity [20] was 78.5% and the residual activity [21] was 99.4%. For the same molecule, the residual activity [22] was 89.5%, the residual activity [23] was 95.4% and the residual activity [24] was 100%. The residual activity [25] was 100%, the residual activity [26] was 100% and the residual activity [27] was 93.6%. The residual activity [28] was 90.6%, the residual activity [29] was 100% and the residual activity [30] was 100%. The residual activity [31] was 100%, the residual activity [32] was 74.8% and the residual activity [33] was 87.7%. The residual activity [34] was 91.7%, the inhibition [35] was 50% and the residual activity [36] was 100%. For the same molecule, the residual activity [37] was 98.3%, the residual activity [38] was 93.5% and the residual activity [39] was 99.1%. The inhibition [40] was 16.6%, the residual activity [41] was 100% and the residual activity [42] was 100%. The residual activity [43] was 99.6%, the residual activity [44] was 100% and the inhibition [45] was 30.5%.
